Assay results reported in ChEMBL document CHEMBL3885881, “DrugMatrix”.

Species on record: Rattus norvegicus
Assay: DrugMatrix - Regimen: Daily Repeat
Type: toxicity, organism-based, Sprague-Dawley
Design: regimen Daily Repeat, gender Male, age 6-8 weeks
Conditions: in vivo, po, route oral GAVAGE, […]; for ABSOLUTE BASOPHIL / ABSOLUTE EOSINOPHIL / ABSOLUTE LYMPHOCYTE / ABSOLUTE MONOCYTE / ABSOLUTE SEGMENTED NEUTROPHIL / BASOPHIL / EOSINOPHIL / ERYTHROCYTE COUNT / HEMATOCRIT / HEMOGLOBIN / LEUKOCYTE COUNT / LYMPHOCYTE / MEAN CORPUSCULAR HEMOGLOBIN / MEAN CORPUSCULAR HEMOGLOBIN CONCENTRATION / MEAN CORPUSCULAR VOLUME / MONOCYTE / NEUTROPHIL / NUCLEATED RED BLOOD CELLS / PLATELET COUNT: tissue Blood; for ALANINE AMINOTRANSFERASE / ALBUMIN / ALKALINE PHOSPHATASE / ASPARTATE AMINOTRANSFERASE / BLOOD UREA NITROGEN / CARBON DIOXIDE / CHLORIDE / CHOLESTEROL / CREATINE PHOSPHOKINASE / CREATININE / GLUCOSE / LACTATE DEHYDROGENASE / LIPASE / PHOSPHORUS / POTASSIUM / SODIUM / TOTAL BILIRUBIN / TOTAL PROTEIN / URIC ACID: tissue Plasma
[1] = 11 mg/kg, 120 h, dose level High, time 5 day
[2] = 72 h, dose 0.26 mg/Kg, dose level Low, time 3 day
[3] = 120 h, dose 0.26 mg/Kg, dose level Low, time 5 day

## C[C@H]1O[C@@H](O[C@H]2[C@@H](O)C[C@H](O[C@H]3[C@@H](O)C[C@H](O[C@H]4CC[C@@]5(C)[C@H](CC[C@@H]6[C@@H]5C[C@@H](O)[C@]5(C)[C@@H](C7=CC(=O)OC7)CC[C@]65O)C4)O[C@@H]3C)O[C@@H]2C)C[C@H](O)[C@@H]1O [DIGOXIN]
[1]
  ABSOLUTE BASOPHIL: 0 CELLS/uL
  ABSOLUTE EOSINOPHIL: 21.33 CELLS/uL
  ABSOLUTE LYMPHOCYTE: 5911 CELLS/uL
  ABSOLUTE MONOCYTE: 0 CELLS/uL
  ABSOLUTE SEGMENTED NEUTROPHIL: 367.67 CELLS/uL
  BASOPHIL: 0%
  EOSINOPHIL: 0.33%
  ERYTHROCYTE COUNT: 6.17 x10E6/uL
  HEMATOCRIT: 38.03%
  HEMOGLOBIN: 15.03 G/DL
  LEUKOCYTE COUNT: 6.3 x10E3/uL
  LYMPHOCYTE: 94.33%
  MEAN CORPUSCULAR HEMOGLOBIN: 24.37 pg
  MEAN CORPUSCULAR HEMOGLOBIN CONCENTRATION: 39.53 G/DL
  MEAN CORPUSCULAR VOLUME: 61.63 fL
  MONOCYTE: 0%
  NEUTROPHIL: 5.33%
  NUCLEATED RED BLOOD CELLS: 0 /100WBC
  PLATELET COUNT: 1098 x10E3/uL
  ALANINE AMINOTRANSFERASE: 90 u/L
  ALBUMIN: 4.37 G/DL
  ALKALINE PHOSPHATASE: 342 u/L
  ASPARTATE AMINOTRANSFERASE: 79.67 u/L
  BLOOD UREA NITROGEN: 9.33 mg/dL
  CARBON DIOXIDE: 32.67 mmol/L
  CHLORIDE: 95 MEQ/L
  CHOLESTEROL: 90.67 mg/dL
  CREATINE PHOSPHOKINASE: 208.33 u/L
  CREATININE: 0.11 mg/dL
  GLUCOSE: 175.67 mg/dL
  LACTATE DEHYDROGENASE: 92 u/L
  LIPASE: 9.33 u/L
  PHOSPHORUS: 9.27 mg/dL
  POTASSIUM: 4.94 MEQ/L
  SODIUM: 141.5 MEQ/L
  TOTAL BILIRUBIN: 0.17 mg/dL
  TOTAL PROTEIN: 6.23 G/DL
  URIC ACID: 0.5 mg/dL
[2]
  ABSOLUTE BASOPHIL: 0 CELLS/uL
  ABSOLUTE EOSINOPHIL: 80.67 CELLS/uL
  ABSOLUTE LYMPHOCYTE: 8480.33 CELLS/uL
  ABSOLUTE MONOCYTE: 0 CELLS/uL
  ABSOLUTE SEGMENTED NEUTROPHIL: 705.67 CELLS/uL
  BASOPHIL: 0%
  EOSINOPHIL: 0.67%
  ERYTHROCYTE COUNT: 5.56 x10E6/uL
  HEMATOCRIT: 34.27%
  HEMOGLOBIN: 13.27 G/DL
  LEUKOCYTE COUNT: 9.27 x10E3/uL
  LYMPHOCYTE: 91.67%
  MEAN CORPUSCULAR HEMOGLOBIN: 23.83 pg
  MEAN CORPUSCULAR HEMOGLOBIN CONCENTRATION: 38.73 G/DL
  MEAN CORPUSCULAR VOLUME: 61.63 fL
  MONOCYTE: 0%
  NEUTROPHIL: 7.67%
  NUCLEATED RED BLOOD CELLS: 0 /100WBC
  PLATELET COUNT: 1014 x10E3/uL
  ALANINE AMINOTRANSFERASE: 79.33 u/L
  ALBUMIN: 3.97 G/DL
  ALKALINE PHOSPHATASE: 406.67 u/L
  ASPARTATE AMINOTRANSFERASE: 82.67 u/L
  BLOOD UREA NITROGEN: 14.67 mg/dL
  CARBON DIOXIDE: 34 mmol/L
  CHLORIDE: 101.33 MEQ/L
  CHOLESTEROL: 79.33 mg/dL
  CREATINE PHOSPHOKINASE: 157.33 u/L
  CREATININE: 0.12 mg/dL
  GLUCOSE: 161 mg/dL
  LACTATE DEHYDROGENASE: 84 u/L
  LIPASE: 10 u/L
  PHOSPHORUS: 9.57 mg/dL
  POTASSIUM: 6.36 MEQ/L
  SODIUM: 146.27 MEQ/L
  TOTAL BILIRUBIN: 0.27 mg/dL
  TOTAL PROTEIN: 5.63 G/DL
  URIC ACID: 1.2 mg/dL
[3]
  ABSOLUTE BASOPHIL: 0 CELLS/uL
  ABSOLUTE EOSINOPHIL: 0 CELLS/uL
  ABSOLUTE LYMPHOCYTE: 13719.67 CELLS/uL
  ABSOLUTE MONOCYTE: 0 CELLS/uL
  ABSOLUTE SEGMENTED NEUTROPHIL: 1313.67 CELLS/uL
  BASOPHIL: 0%
  EOSINOPHIL: 0%
  ERYTHROCYTE COUNT: 5.8 x10E6/uL
  HEMATOCRIT: 35.03%
  HEMOGLOBIN: 13.67 G/DL
  LEUKOCYTE COUNT: 15.03 x10E3/uL
  LYMPHOCYTE: 90.33%
  MEAN CORPUSCULAR HEMOGLOBIN: 23.57 pg
  MEAN CORPUSCULAR HEMOGLOBIN CONCENTRATION: 39.03 G/DL
  MEAN CORPUSCULAR VOLUME: 60.4 fL
  MONOCYTE: 0%
  NEUTROPHIL: 9.67%
  NUCLEATED RED BLOOD CELLS: 0 /100WBC
  PLATELET COUNT: 1074 x10E3/uL
  ALANINE AMINOTRANSFERASE: 64.67 u/L
  ALBUMIN: 4.03 G/DL
  ALKALINE PHOSPHATASE: 401.33 u/L
  ASPARTATE AMINOTRANSFERASE: 82.67 u/L
  BLOOD UREA NITROGEN: 15.33 mg/dL
  CARBON DIOXIDE: 31.67 mmol/L
  CHLORIDE: 100.33 MEQ/L
  CHOLESTEROL: 58.67 mg/dL
  CREATINE PHOSPHOKINASE: 259 u/L
  CREATININE: 0.14 mg/dL
  GLUCOSE: 148.33 mg/dL
  LACTATE DEHYDROGENASE: 110 u/L
  LIPASE: 9.33 u/L
  PHOSPHORUS: 9.93 mg/dL
  POTASSIUM: 5.45 MEQ/L
  SODIUM: 144.47 MEQ/L
  TOTAL BILIRUBIN: 0.2 mg/dL
  TOTAL PROTEIN: 5.73 G/DL
  URIC ACID: 0.7 mg/dL
